# Assays:
# Mus musculus [1] = assay: Sedative-hypnotic activity in Mus musculus (mouse) assessed as increase in duration of phenobarbital-induced sleep at 19.6 to 42.6 mg/kg, ip incubated for 30 min prior to phenobarbital challenge relative to phenobarbital-treated mouse; type: functional; conditions: dose mg/kg 19.6-42.6; route intraperitoneal
# Mus musculus [2] = assay: Sedative-hypnotic activity in Mus musculus (mouse) assessed as decrease in onset of phenobarbital-induced sleep at 19.6 to 42.6 mg/kg, ip incubated for 30 min prior to phenobarbital challenge relative to phenobarbital-treated mouse; type: functional; conditions: dose mg/kg 19.6-42.6; route intraperitoneal
structure (smiles),measurement,setting,value
O=C1CCCOc2ccc(Cl)cc21,Time,Mus musculus [1],59.5 min
same,Time,Mus musculus [2],34.5 min
CN(C)CC1CCOc2ccc(Cl)cc2C1=O (configuration not stated),Time,Mus musculus [1],61.3 min
same,Time,Mus musculus [2],34 min
O=C1c2cc(Cl)ccc2OCCC1CN1CCCCC1 (configuration not stated),Time,Mus musculus [1],99.3 min
same,Time,Mus musculus [2],24.5 min
CN1CCN(CC2CCOc3ccc(Cl)cc3C2=O)CC1 (configuration not stated),Time,Mus musculus [1],92.35 min
same,Time,Mus musculus [2],38.8 min
O=C1c2cc(Cl)ccc2OCCC1CN1CCN(c2ccccc2Cl)CC1 (configuration not stated),Time,Mus musculus [1],45.25 min
same,Time,Mus musculus [2],45.5 min
O=C1c2cc(Cl)ccc2OCCC1CN1CCOCC1 (configuration not stated),Time,Mus musculus [1],75.25 min
same,Time,Mus musculus [2],40.8 min
O=C1/C(=C\c2ccccc2)CCOc2ccc(Cl)cc21,Time,Mus musculus [1],84.3 min
same,Time,Mus musculus [2],18 min
O=C1/C(=C\c2ccc(F)cc2)CCOc2ccc(Cl)cc21,Time,Mus musculus [1],103.15 min
same,Time,Mus musculus [2],16.5 min
O=C1/C(=C\c2ccc(Cl)cc2)CCOc2ccc(Cl)cc21,Time,Mus musculus [1],105.5 min
same,Time,Mus musculus [2],15 min
COc1ccc(/C=C2/CCOc3ccc(Cl)cc3C2=O)cc1,Time,Mus musculus [1],79.4 min
same,Time,Mus musculus [2],17.6 min
O=C1c2cc(Cl)ccc2OCCC1Br (configuration not stated),Time,Mus musculus [1],39.15 min
same,Time,Mus musculus [2],47 min
CCC1(c2ccccc2)C(=O)NC(=O)N(C2CCOc3ccc(Cl)cc3C2=O)C1=O (configuration not stated),Time,Mus musculus [1],123.25 min
same,Time,Mus musculus [2],21.5 min
O=C1CC2CCOc3ccc(Cl)cc3C2=NN1c1ccccc1 (configuration not stated),Time,Mus musculus [1],100.15 min
same,Time,Mus musculus [2],20 min
O=C1CC2CCOc3ccc(Cl)cc3C2=NN1c1ccc(Cl)cc1 (configuration not stated),Time,Mus musculus [1],42.15 min
same,Time,Mus musculus [2],49.5 min
COc1ccc(N2N=C3c4cc(Cl)ccc4OCCC3CC2=O)cc1 (configuration not stated),Time,Mus musculus [1],38.45 min
same,Time,Mus musculus [2],42.5 min
CCC1(c2ccccc2)C(=O)NC(=O)NC1=O [PHENOBARBITAL],Time,Mus musculus [1],100.5 min
same,Time,Mus musculus [2],46.8 min
